From patent US11753407B2, “Compounds for treating spinal muscular atrophy” (PTC Therapeutics, Inc., priority 2012, dated 2023)

Tests used:
[1] = system: SMN2 minigene mRNA (SMN2-A minigene) in HEK293H cells; assay: SMN2 minigene mRNA splicing RT-qPCR assay in cultured cells; assay type: cell-based, human; conditions: Homo sapiens, HEK293-H; concentration increasing full length SMN2 mRNA 1.5-fold relative to vehicle-treated cells; HEK293H cells with SMN2-A minigene, 24 hours, 7-point concentration data; read-out: EC1.5x for production of full length SMN2 mRNA
In short: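 EC1.5× = concentration raising full-length SMN2 minigene mRNA 1.5-fold over vehicle, from 7-point curves in duplicate. Stably transfected HEK293H cells exposed 24 h at 37 °C; lysates assayed by multiplex RT-qPCR, minigene FL signal normalized to GAPDH via modified ΔΔCt.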

[2] = system: Smn protein in SMA patient fibroblast cells (GM03813); assay: Smn protein assay in cultured cells (SMN HTRF); assay type: cell-based, human; conditions: SMA patient fibroblast cells, 48 hours; for EC1.5x for Smn protein expression: 7-point concentration curve, SMN HTRF, concentration producing 1.5 times Smn protein vs DMSO vehicle control; for maximum fold (Fold) increase of Smn protein: 7-point concentration data, fold relative to vehicle control
In short: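 Smn protein quantified by HTRF with anti-SMN d2/kryptate pair, 665/620 nm ratio blank-corrected, in RIPA lysates of GM03813 fibroblasts after 48 h compound exposure (7 concentrations, 3.16-fold steps, triplicates). Values: concentration producing 1.5× vehicle Smn level, and maximal fold increase.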

Row | melting point [°C] | SMILES | EC (1.5-fold increase) [1] [µM] | EC1.5x for Smn protein expression [2] | maximum fold (Fold) increase of Smn protein [2]
1 | 160 to 162 | Cn1cc2cc(-c3cc(=O)n4cc(N5CCNCC5)ncc4n3)ccc2n1 [Compound 586, 2-(2-methyl-2H-indazol-5-yl)-7-(piperazin-1-yl)-4H-pyrazino[1,2-a]pyrimidin-4-one] | 0.1 to 0.3 | **** (an EC1.5x≤0.3 μM is indicated by four stars (****)) | ***** (a fold increase >1.65 is indicated by five stars (*****))
2 | 214 to 216 | CCN1CCN(c2cn3c(=O)cc(-c4ccc5nn(C)cc5c4)nc3cn2)CC1 [Compound 590, 7-(4-ethylpiperazin-1-yl)-2-(2-methyl-2H-indazol-5-yl)-4H-pyrazino[1,2-a]pyrimidin-4-one] | 0.3 to 1 | ** (an EC1.5× between >1 μM and ≤3 μM is indicated by two stars (**)) | **** (a fold increase between >1.5 and ≤1.65 is indicated by four stars (****))
3 | 200 to 202 | Cn1cc2cc(-c3cc(=O)n4cc(N5CCN(CCO)CC5)ncc4n3)ccc2n1 [Compound 591, 7-[4-(2-hydroxyethyl)piperazin-1-yl]-2-(2-methyl-2H-indazol-5-yl)-4H-pyrazino[1,2-a]pyrimidin-4-one] | 0.3 to 1 | ** (an EC1.5× between >1 μM and ≤3 μM is indicated by two stars (**)) | **** (a fold increase between >1.5 and ≤1.65 is indicated by four stars (****))
4 | 249 to 251 | Cc1cn2cc(-c3cc(=O)n4cc(C5CCN(C)CC5)ncc4n3)cc(C)c2n1 [Compound 592, 2-(2,8-dimethylimidazo[1,2-a]pyridin-6-yl)-7-(1-methylpiperidin-4-yl)-4H-pyrazino[1,2-a]pyrimidin-4-one] | 0.1 to 0.3 | *** (an EC1.5× between >0.3 μM and ≤1 μM is indicated by three stars (***)) | ***** (a fold increase >1.65 is indicated by five stars (*****))
5 | 242 to 244 | CCN1CCC(c2cn3c(=O)cc(-c4cc(C)c5nc(C)cn5c4)nc3cn2)CC1 [Compound 593, 2-(2,8-dimethylimidazo[1,2-a]pyridin-6-yl)-7-(1-ethylpiperidin-4-yl)-4H-pyrazino[1,2-a]pyrimidin-4-one] | < 0.1 | **** (an EC1.5x≤0.3 μM is indicated by four stars (****)) | ***** (a fold increase >1.65 is indicated by five stars (*****))
6 | 242 to 244 | Cc1cn2cc(-c3cc(=O)n4cc(C5CCN(CCO)CC5)ncc4n3)cc(C)c2n1 [Compound 594, 2-(2,8-dimethylimidazo[1,2-a]pyridin-6-yl)-7-[1-(2-hydroxyethyl)piperidin-4-yl]-4H-pyrazino[1,2-a]pyrimidin-4-one] | 0.1 to 0.3 | *** (an EC1.5× between >0.3 μM and ≤1 μM is indicated by three stars (***)) | **** (a fold increase between >1.5 and ≤1.65 is indicated by four stars (****))
7 | 243 to 245 | Cc1cn2cc(-c3cc(=O)n4cc(C5CCN(C(C)C)CC5)ncc4n3)cc(Cl)c2n1 [Compound 595, 2-(8-chloro-2-methylimidazo[1,2-a]pyridin-6-yl)-7-[1-(propan-2-yl)piperidin-4-yl]-4H-pyrazino[1,2-a]pyrimidin-4-one] | < 0.1 | **** (an EC1.5x≤0.3 μM is indicated by four stars (****)) | **** (a fold increase between >1.5 and ≤1.65 is indicated by four stars (****))
8 | 228 to 236 | CCNC1CCN(c2cc(C)c3nc(-c4cc5c(C)nc(C)cn5n4)cc(=O)n3c2)CC1 [Compound 596, 2-(4,6-dimethylpyrazolo[1,5-a]pyrazin-2-yl)-7-[4-(ethylamino)piperidin-1-yl]-9-methyl-4H-pyrido[1,2-a]pyrimidin-4-one] | < 0.1 | **** (an EC1.5x≤0.3 μM is indicated by four stars (****)) | **** (a fold increase between >1.5 and ≤1.65 is indicated by four stars (****))
9 | 218 to 227 | Cc1cn2nc(-c3cc(=O)n4cc(N5CCC(N(CCO)CCO)CC5)cc(C)c4n3)cc2c(C)n1 [Compound 597, 7-{4-[bis(2-hydroxyethyl)amino]piperidin-1-yl}-2-(4,6-dimethylpyrazolo[1,5-a]pyrazin-2-yl)-9-methyl-4H-pyrido[1,2-a]pyrimidin-4-one] | 0.1 to 0.3 | *** (an EC1.5× between >0.3 μM and ≤1 μM is indicated by three stars (***)) | **** (a fold increase between >1.5 and ≤1.65 is indicated by four stars (****))
10 | 205 to 207 | Cc1nc2ccc(-c3cc(=O)n4nc(C5CCN(CCO)CC5)ccc4n3)cc2o1 [Compound 598, 7-[1-(2-hydroxyethyl)piperidin-4-yl]-2-(2-methyl-1,3-benzoxazol-6-yl)-4H-pyrimido[1,2-b]pyridazin-4-one] | 0.1 to 0.3 | *** (an EC1.5× between >0.3 μM and ≤1 μM is indicated by three stars (***)) | ***** (a fold increase >1.65 is indicated by five stars (*****))
11 | 266 to 268 | Cc1cn2cc(-c3cc(=O)n4cc(C5CCN(CCO)CC5)ncc4n3)cc(Cl)c2n1 [Compound 599, 2-(8-chloro-2-methylimidazo[1,2-a]pyridin-6-yl)-7-[1-(2-hydroxyethyl)piperidin-4-yl]-4H-pyrazino[1,2-a]pyrimidin-4-one] | < 0.1 | **** (an EC1.5x≤0.3 μM is indicated by four stars (****)) | ***** (a fold increase >1.65 is indicated by five stars (*****))
12 | 150 to 152 | Cc1cn2nc(-c3cc(=O)n4cc(C5CCN(C6COC6)CC5)ccc4n3)cc2c(C)n1 [Compound 600, 2-(4,6-dimethylpyrazolo[1,5-a]pyrazin-2-yl)-7-[1-(oxetan-3-yl)piperidin-4-yl]-4H-pyrido[1,2-a]pyrimidin-4-one] | 0.1 to 0.3 | ** (an EC1.5× between >1 μM and ≤3 μM is indicated by two stars (**)) | **** (a fold increase between >1.5 and ≤1.65 is indicated by four stars (****))
13 | 202 to 204 | CCN1CCN(c2ccc3nc(-c4cc5cc(C)nc(C)c5o4)cc(=O)n3c2)CC1 [Compound 601, 2-(5,7-dimethylfuro[2,3-c]pyridin-2-yl)-7-(4-ethylpiperazin-1-yl)-4H-pyrido[1,2-a]pyrimidin-4-one] | < 0.1 | *** (an EC1.5× between >0.3 μM and ≤1 μM is indicated by three stars (***)) | **** (a fold increase between >1.5 and ≤1.65 is indicated by four stars (****))
14 | 210 to 212 | Cc1cn2nc(-c3cc(=O)n4cc(N5CCC6C(CCN6C)C5)ccc4n3)cc2c(C)n1 (centres unmarked) [Compound 602, 2-(4,6-dimethylpyrazolo[1,5-a]pyrazin-2-yl)-7-(1-methyloctahydro-5H-pyrrolo[3,2-c]pyridin-5-yl)-4H-pyrido[1,2-a]pyrimidin-4-one] | < 0.1 | **** (an EC1.5x≤0.3 μM is indicated by four stars (****)) | **** (a fold increase between >1.5 and ≤1.65 is indicated by four stars (****))
15 | 184 to 186 | CCN1CCC(c2ccc3nc(-c4ccc5c(cnn5C)c4)cc(=O)n3c2)CC1 [Compound 604, 7-(1-ethylpiperidin-4-yl)-2-(1-methyl-1H-indazol-5-yl)-4H-pyrido[1,2-a]pyrimidin-4-one] | 0.3 to 1 | **** (an EC1.5x≤0.3 μM is indicated by four stars (****)) | ***** (a fold increase >1.65 is indicated by five stars (*****))
16 | 204 to 206 | Cn1ncc2cc(-c3cc(=O)n4cc(C5CCN(CCO)CC5)ccc4n3)ccc21 [Compound 605, 7-[1-(2-hydroxyethyl)piperidin-4-yl]-2-(1-methyl-1H-indazol-5-yl)-4H-pyrido[1,2-a]pyrimidin-4-one] | 0.3 to 1 | *** (an EC1.5× between >0.3 μM and ≤1 μM is indicated by three stars (***)) | ***** (a fold increase >1.65 is indicated by five stars (*****))
17 | 194 to 196 | Cn1cc2cc(-c3cc(=O)n4cc(C5CCNCC5)ccc4n3)ccc2n1 [Compound 606, 2-(2-methyl-2H-indazol-5-yl)-7-(piperidin-4-yl)-4H-pyrido[1,2-a]pyrimidin-4-one] | < 0.1 | ** (an EC1.5× between >1 μM and ≤3 μM is indicated by two stars (**)) | **** (a fold increase between >1.5 and ≤1.65 is indicated by four stars (****))
